Among the test systems are M19-MEL; DLD-1; XF498; KM-20L2; SNB-78; LXFL 529; RXF 631; Hs-578T; MDA-N.
Test in all cases: NCI anticancer screen, dose series, 48 h

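Five concentrations, 48 hours, 96-well plates. Here, GI50 denotes the concentration required for 50% inhibition of growth.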 Activity calls are given as the source filed them. Rule as the data show it: active = GI50 up to about 1.1 µM and inactive = higher.

In the case of `CCN(CC)CCNC(=O)C1COc2ccc(-c3cc(=O)c4ccccc4o3)cc2O1` (stereo not given), the GI50 with M19-MEL was 18.3 µM (inactive); with DLD-1, 22.9 µM (inactive); in the assay on XF498 it was 22.6 µM (inactive); in the assay with KM-20L2, 17.5 µM (inactive); in the assay on SNB-78, 10.1 µM (inactive).
As to `O=c1[nH]c2cc(-c3ccccc3)nc-2nn1-c1c(Cl)cc(Cl)cc1Cl`, the GI50 in the assay on M19-MEL is 22.8 µM (inactive); in the assay on LXFL 529, 30.5 µM (inactive); in the assay on DLD-1 it was 37.5 µM (inactive); in the assay on XF498, 27.9 µM (inactive); in the assay on KM-20L2, 25.8 µM (inactive); in the assay on RXF 631 it was 46 µM (inactive). In the assay on SNB-78, the GI50 is 37.5 µM (inactive).
Take `C[C@]12CC[C@H](OC(=O)Nc3ccccc3)CC1=CC[C@@H]1C2CC[C@]2(C)/C(=N/OC(=O)Nc3ccccc3)CCC12` (stereo not given in full): the GI50 is > 100 µM (inactive) in the assay on M19-MEL; 1.12 µM (inactive) in the assay on LXFL 529; 1.75 µM (inactive) in the assay with XF498; 3.2 µM (inactive) with KM-20L2; 6.37 µM (inactive) in the assay on RXF 631; > 100 µM (inactive) in the assay on SNB-78.
Turning to `COCCCNC(=O)C1C(=O)C(=O)N(CCCOC)C1=O` (stereo not given), the GI50 in the assay on M19-MEL, with LXFL 529, with DLD-1, with KM-20L2, in the assay with RXF 631 and in the assay with SNB-78 was > 100 µM (inactive) each time.
`CC(C)C1N2CCCCC2[C@@H]2c3[nH]c4ccccc4c3CCN12` (stereo not given in full): the GI50 with M19-MEL, in the assay on LXFL 529, with DLD-1, in the assay with XF498, in the assay on KM-20L2 and with SNB-78 was > 100 µM (inactive) each time.
Regarding `CC(=O)NC(CCCCN(Cc1ccccc1)C(=O)N(C)N=O)C(=O)NCc1ccccc1` (stereo not given), the GI50 was > 100 µM (inactive) in the assay with M19-MEL; 51.5 µM (inactive) in the assay on LXFL 529; > 100 µM (inactive) with DLD-1; > 100 µM (inactive) with XF498; > 100 µM (inactive) in the assay with KM-20L2; > 100 µM (inactive) in the assay on RXF 631. Also, the GI50 in the assay on SNB-78 is > 100 µM (inactive).
As to `N#CC(/C(=N/NC(=O)C(=O)NN)C(=O)NC12CC3CC(CC(C3)C1)C2)c1ccccc1` (stereo not given), the GI50 in the assay on M19-MEL, with LXFL 529, in the assay on DLD-1, with KM-20L2, in the assay on RXF 631 and in the assay with SNB-78 was > 100 µM (inactive) each time.
Regarding `COC(=O)Cc1nn2c(nc1=O)sc1ccc3ccccc3c12`, the GI50 in the assay with M19-MEL was > 100 µM (inactive); in the assay with LXFL 529, > 100 µM (inactive); in the assay on DLD-1, > 100 µM (inactive); in the assay on KM-20L2, > 100 µM (inactive); with RXF 631, 91.6 µM (inactive).
In the case of `COC1(OC)CC2C=C(S(=O)(=O)c3ccccc3)C1N(Cc1ccccc1)C2=O` (stereo not given), the GI50 in the assay with M19-MEL is 32.4 µM (inactive); in the assay with LXFL 529 it was 20.3 µM (inactive); with DLD-1, 24.3 µM (inactive); in the assay with XF498 it was 19.1 µM (inactive); with KM-20L2, 28.9 µM (inactive); in the assay on RXF 631, 26.3 µM (inactive). In addition, the GI50 with SNB-78 was 21.2 µM (inactive).
As to `COc1ccc(C2SCC(=O)N2NC(=O)c2ccncc2)cc1F` (stereo not given), the GI50 with LXFL 529, with DLD-1, in the assay on XF498, in the assay with KM-20L2 and in the assay with SNB-78 was > 100 µM (inactive) each time.
As for `Nc1nc(SCc2ccc([N+](=O)[O-])cc2)nc2c1ncn2C1OC(COP(=O)(O)O)C(O)C1O` (stereo not given), the GI50 in the assay on LXFL 529, in the assay on DLD-1, in the assay with XF498, in the assay with KM-20L2 and with SNB-78 was > 100 µM (inactive) each time.
As for `CCc1cccc(C(C)C)c1NC(=O)C(=O)C(CC(=O)Nc1ccc(Cl)c(Cl)c1)C(=O)OC` (stereo not given), the GI50 in the assay on M19-MEL is 52.5 µM (inactive); in the assay with DLD-1, 31 µM (inactive); in the assay with XF498 it was > 100 µM (inactive); with KM-20L2 it was 26.2 µM (inactive); in the assay with RXF 631, > 100 µM (inactive); in the assay on SNB-78 it was > 100 µM (inactive).
As to `COc1ccc(/C=c2\sc3nnc(CCC(=O)Nc4cccc(C(F)(F)F)c4)n3c2=O)cc1`, the GI50 in the assay with M19-MEL was > 84.1 µM (inactive); in the assay with LXFL 529, > 87.1 µM (inactive); in the assay with DLD-1, > 100 µM (inactive); in the assay with XF498, > 100 µM (inactive); in the assay with KM-20L2, > 100 µM (inactive); with RXF 631 it was > 100 µM (inactive). Moreover, the GI50 in the assay with SNB-78 is > 100 µM (inactive).
Consider `CCOc1ccccc1NC(=O)/C=C1\NC(=O)CS1`, for which the GI50 in the assay with M19-MEL, with LXFL 529, with DLD-1, with XF498, with KM-20L2 and with SNB-78 was > 100 µM (inactive) each time.
For the compound `N=C(N)N/N=C(/CC1OC(=O)c2ccccc21)c1ccc2ccccc2c1` (stereo not given), the GI50 was 16.2 µM (inactive) in the assay on M19-MEL; 14.6 µM (inactive) in the assay with LXFL 529; 14 µM (inactive) with DLD-1; 7.71 µM (inactive) with XF498; 24.7 µM (inactive) in the assay with KM-20L2; 21.4 µM (inactive) with RXF 631. The GI50 in the assay on SNB-78 is > 100 µM (inactive).
Turning to `COc1ccc(C2c3cc4c(cc3OC(O)(CO)C2C(=O)O)OCO4)cc1.COc1ccc(C2c3cc4c(cc3OC3(O)COC(=O)C23)OCO4)cc1` (stereo not given), the GI50 with M19-MEL is 4.6 µM (inactive); with LXFL 529, 15.6 µM (inactive); with DLD-1 it was 21.8 µM (inactive); with XF498, 0.536 µM (active); in the assay on KM-20L2, 43.2 µM (inactive); in the assay with RXF 631 it was 19.5 µM (inactive). In the assay on SNB-78, the GI50 was 23.2 µM (inactive).
As to `C[C@]12Cc3cn[nH]c3C(=O)C1CC[C@@H]1C2CC[C@@]2(C)C1CC[C@]2(C)O` (stereo not given in full), the GI50 with M19-MEL, in the assay with LXFL 529, with DLD-1, in the assay with XF498, in the assay with KM-20L2 and in the assay on RXF 631 was > 100 µM (inactive) in each case. For the same compound, the GI50 with SNB-78 is > 100 µM (inactive).
As to `CC(O)C(NC(=O)C(CS)NC(=O)C(CO)NC(=O)C(CCCCN)NC(=O)C(Cc1c[nH]c2ccccc12)NC(=O)C(Cc1ccc(O)cc1)NC(=O)C(CS)NC(=O)C(N)Cc1ccccc1)C(N)=O` (stereo not given), the GI50 with M19-MEL was 26 µM (inactive); in the assay on DLD-1 it was 22.1 µM (inactive); in the assay on XF498 it was 21.6 µM (inactive); with Hs-578T it was > 25 µM (inactive); in the assay with KM-20L2, 23.9 µM (inactive); with MDA-N, > 25 µM (inactive). For the same compound, the GI50 in the assay with RXF 631 was 19.1 µM (inactive); in the assay with SNB-78 it was 31.3 µM (inactive).
For `CC[C@@H](C(=O)[C@@H](C)[C@@H](O)[C@H](C)CCc1ccc(C)c(O)c1C(=O)O)[C@H]1O[C@](CC)([C@H]2CC[C@](O)(CC)[C@H](C)O2)C[C@@H]1C` [LASALOCID A SODIUM], the GI50 in the assay with M19-MEL was 1.65 µM (inactive); in the assay with LXFL 529, 1.18 µM (inactive); with DLD-1, 3.61 µM (inactive); with XF498, 1.25 µM (inactive); in the assay with KM-20L2, 1.78 µM (inactive); with RXF 631, 0.741 µM (active). In addition, the GI50 in the assay on SNB-78 was 3.13 µM (inactive).

Values taken from ChEMBL document CHEMBL1201862, “PubChem BioAssay data set” (2004).
